Laboratory results reported in US20240140957A1, “BRIDGED COMPOUNDS AS KRAS G12D INHIBITOR AND DEGRADER AND THE USE THEREOF” (BeiGene Switzerland GmbH, priority 2021, published 2024).

Columns and labels:
[1] = target: KRAS G12D:SOS1 (Homo sapiens, UniProt P01116, G12D); experiment: KRAS G12D:SOS1 GDP TR-FRET assay; assay type: binding; details: GST-KRAS G12D 37.5 nM, GDP 10 μM, His-SOS1 18 nM
Method: (§1) KRAS:SOS1 GDP TR-FRET Assay
(§2) This assay was used to identify compounds which competitively interact with the binding of KRAS protein to SOS1 in the presence of GDP. […] All protein and reaction solutions were prepared in assay buffer containing DPBS pH7.5, 0.1% BSA, and 0.05% Tween 20. Purified GST-tagged WT KRAS or KRAS G12D protein (37.5 nM final assay concentration) and GDP (Sigma, 10 μM final assay concentration) mixture, a serially diluted compound (top final concentration is 50 μM or 10 uM, 3-fold serially diluted, 10 points) and His-tagged SOS1 protein (18 nM final assay concentration) were added into the assay plates (384 well microplate, black, Corning) sequentially. Plates are incubated at 24° C. for 1 hr. Following the incubation, Mab Anti-GST-Tb cryptate (Cisbio) and […] (Cisbio) were added and further incubated at 24° C. for another 1 hr. The TR-FRET signals (ex337 nm, em665 nm/620 nm) were read on BMG PHERAstar FSX instrument. The inhibition percentage of KRAS protein binding with SOS1 in presence of increasing concentrations of compounds was calculated based on the ratio of fluorescence at 665 nm to that at 620 nm. The IC50 value of each compound was calculated from fitting the data to the four-parameter logistic model by Dotmatics.

[2] = target: WT KRAS:SOS1 (Homo sapiens, UniProt P01116); experiment: KRAS WT:SOS1 GDP TR-FRET assay; assay type: binding; details: GST-WT KRAS 37.5 nM, GDP 10 μM, His-SOS1 18 nM
Method: as §1, §2

[3] = tested on: pERK1/2 (THR202/TYR204) in AsPC-1 cells; experiment: pERK Assay (HTRF) in AsPC-1 cells; assay type: cell-based; details: Homo sapiens, ASPC1, 2 h compound treatment
Method: AsPC-1 cell line was used in this study. […] 30000 cells per well were seeded into a 96-well plate and incubated overnight. […] After 2 h compound treatment, cells were lysed, and the pERK1/2 (THR202/TYR204) level in the cell lysates was detected by HTRF kit (Cisbio). In brief, a total of 16 μL of cell lysate from each well of a 96-well plate was transferred to a 384-well white assay plate. Lysate from each well was incubated with 2 μL of Eu3+-cryptate (donor) labeled anti-phospho-ERK1/2 and 2 μL of D2 (acceptor) labeled anti-phospho-ERK1/2 antibodies (Cisbio) overnight in dark at room temperature. When donor and acceptor are in close proximity, excitation of the donor with laser triggers a Fluorescence Resonance Energy Transfer (FRET) towards the acceptor, which in turn fluoresces at 655 nm wavelength. FRET signals were measured using a PHERAstar FSX reader (BMG Labtech).

KRAS G12D:SOS1, sequence (P01116 1-188 isoform P01116-2 G12D): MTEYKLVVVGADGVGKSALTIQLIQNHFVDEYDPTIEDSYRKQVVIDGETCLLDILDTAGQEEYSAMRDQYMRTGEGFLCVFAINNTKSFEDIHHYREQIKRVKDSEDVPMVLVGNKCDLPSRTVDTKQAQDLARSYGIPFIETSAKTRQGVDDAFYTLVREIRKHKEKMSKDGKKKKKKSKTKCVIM
WT KRAS:SOS1, sequence (P01116 1-188 isoform P01116-2): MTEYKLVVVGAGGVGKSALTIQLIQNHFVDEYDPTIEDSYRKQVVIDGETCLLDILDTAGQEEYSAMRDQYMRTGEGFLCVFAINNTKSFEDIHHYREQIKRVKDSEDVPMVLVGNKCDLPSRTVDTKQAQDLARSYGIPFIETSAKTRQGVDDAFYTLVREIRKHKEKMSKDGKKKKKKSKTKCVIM

Row | SMILES | IC50 [1] | IC50 [2] | IC50 [3]
1 | CC(CN1C2CCC1CNC2)Oc1nc(N2CC3CCC(C2)N3)c2cc(Cl)c(-c3ccc(F)c4sc(N)nc34)c(F)c2n1 (stereo not drawn) [Example E10, 4-(2-((1-(3,8-diazabicyclo[3.2.1]octan-8-yl)propan-2-yl)oxy)-4-(3,8-diazabicyclo[3.2.1]octan-3-yl)-6-chloro-8-fluoroquinazolin-7-yl)-7-fluorobenzo[d]thiazol-2-amine] | 5.7 nM | 387 nM | > 10000 nM
2 | C[C@@H](CN1CCC(F)C1)Oc1nc(N2CC3CCC(C2)N3)c2cc(Cl)c(-c3ccc(F)c4sc(N)nc34)c(F)c2n1 (stereo partly drawn) [Example E24, 4-(4-(3,8-diazabicyclo[3.2.1]octan-3-yl)-6-chloro-8-fluoro-2-(((2S)-1-(3-fluoropyrrolidin-1-yl)propan-2-yl)oxy)quinazolin-7-yl)-7-fluorobenzo[d]thiazol-2-amine] | 2.8 nM | 210 nM | 1270 nM
3 | C[C@@H](CN1CC=CCC1)Oc1nc(N2CC3CCC(C2)N3)c2cc(Cl)c(-c3ccc(F)c4sc(N)nc34)c(F)c2n1 [Example E33, 4-(4-(3,8-diazabicyclo[3.2.1]octan-3-yl)-6-chloro-2-(((S)-1-(3,6-dihydropyridin-1(2H)-yl)propan-2-yl)oxy)-8-fluoroquinazolin-7-yl)-7-fluorobenzo[d]thiazol-2-amine] | 6.1 nM | 143 nM | 890 nM
4 | CC(CN1CCCCC1)Oc1nc(N2C3CCC2CNC3)c2cc(Cl)c(-c3ccc(F)c4sc(N)nc34)c(F)c2n1 (stereo not drawn) [Example E8, 4-(4-(3,8-diazabicyclo[3.2.1]octan-8-yl)-6-chloro-8-fluoro-2-((1-(piperidin-1-yl)propan-2-yl)oxy)quinazolin-7-yl)-7-fluorobenzo[d]thiazol-2-amine] | 6.7 nM | 50 nM | 1150 nM
5 | Nc1nc2c(-c3c(Cl)cc4c(N5C6CCC5CNC6)nc(OC5CC6CCCCN6C5)nc4c3F)ccc(F)c2s1 (stereo not drawn) [Example E39, 4-(4-(3,8-diazabicyclo[3.2.1]octan-8-yl)-6-chloro-8-fluoro-2-((octahydroindolizin-2-yl)oxy)quinazolin-7-yl)-7-fluorobenzo[d]thiazol-2-amine] | 54 nM | 8160 nM | > 10000 nM
6 | C[C@@H](CN1CCC(F)CC1)Oc1nc(N2C3CCC2CNC3)c2cc(Cl)c(-c3ccc(F)c4sc(N)nc34)c(F)c2n1 [Example E30, 4-(4-(3,8-diazabicyclo[3.2.1]octan-8-yl)-6-chloro-8-fluoro-2-(((S)-1-(4-fluoropiperidin-1-yl)propan-2-yl)oxy)quinazolin-7-yl)-7-fluorobenzo[d]thiazol-2-amine] | 12 nM | 173 nM | 1810 nM
7 | C[C@@H](CN1CCN(C)CC1)Oc1nc(N2CC3CCC(C2)N3)c2cc(Cl)c(-c3ccc(F)c4sc(N)nc34)c(F)c2n1 [Example E34, 4-(4-(3,8-diazabicyclo[3.2.1]octan-3-yl)-6-chloro-8-fluoro-2-(((S)-1-(4-methylpiperazin-1-yl)propan-2-yl)oxy)quinazolin-7-yl)-7-fluorobenzo[d]thiazol-2-amine] | 15 nM | 1350 nM | > 10000 nM
8 | CC(CN1CCCCC1)Oc1nc(N2C3CCC2C(N)C3)c2cc(Cl)c(-c3ccc(F)c4sc(N)nc34)c(F)c2n1 (stereo not drawn) [Example E9, 4-(4-(2-amino-7-azabicyclo[2.2.1]heptan-7-yl)-6-chloro-8-fluoro-2-((1-(piperidin-1-yl)propan-2-yl)oxy)quinazolin-7-yl)-7-fluorobenzo[d]thiazol-2-amine] | 26 nM | 381 nM | 7690 nM
9 | C[C@@H](CN1CCC(F)(F)C1)Oc1nc(N2CC3CCC(C2)N3)c2cc(Cl)c(-c3ccc(F)c4sc(N)nc34)c(F)c2n1 [Example E20, 4-(4-(3,8-diazabicyclo[3.2.1]octan-3-yl)-6-chloro-2-(((S)-1-(3,3-difluoropyrrolidin-1-yl)propan-2-yl)oxy)-8-fluoroquinazolin-7-yl)-7-fluorobenzo[d]thiazol-2-amine] | 25 nM | > 10000 nM | 7260 nM
10 | CC(CN1CCCCC1)Oc1nc(N2CC3COCC(C2)N3)c2cc(Cl)c(-c3ccc(F)c4sc(N)nc34)c(F)c2n1 (stereo not drawn) [Example E21, 4-(4-(3-oxa-7,9-diazabicyclo[3.3.1]nonan-7-yl)-6-chloro-8-fluoro-2-((1-(piperidin-1-yl)propan-2-yl)oxy)quinazolin-7-yl)-7-fluorobenzo[d]thiazol-2-amine] | 44 nM | 338 nM | > 10000 nM
11 | CN(C)CCCOc1nc(N2CC3CCC2CN3)c2cc(Cl)c(-c3ccc(F)c4sc(N)nc34)c(F)c2n1 (stereo not drawn) [Example E4, 4-(4-(2,5-diazabicyclo[2.2.2]octan-2-yl)-6-chloro-2-(3-(dimethylamino)propoxy)-8-fluoroquinazolin-7-yl)-7-fluorobenzo[d]thiazol-2-amine] | 39 nM | 1100 nM | > 10000 nM
12 | C[C@@H](CN1CCC(F)(F)CC1)Oc1nc(N2C3CCC2CNC3)c2cc(Cl)c(-c3ccc(F)c4sc(N)nc34)c(F)c2n1 [Example E19, 4-(4-(3,8-diazabicyclo[3.2.1]octan-8-yl)-6-chloro-2-(((S)-1-(4,4-difluoropiperidin-1-yl)propan-2-yl)oxy)-8-fluoroquinazolin-7-yl)-7-fluorobenzo[d]thiazol-2-amine] | 10 nM | 566 nM | 3410 nM
13 | CN1C[C@H](O)C[C@H]1COc1nc(N2CC3CCC(C2)N3)c2cc(Cl)c(-c3ccc(F)c4sc(N)nc34)c(F)c2n1 [Example E28, (3R,5S)-5-(((7-(2-amino-7-fluorobenzo[d]thiazol-4-yl)-4-(3,8-diazabicyclo[3.2.1]octan-3-yl)-6-chloro-8-fluoroquinazolin-2-yl)oxy)methyl)-1-methylpyrrolidin-3-ol] | 3 nM | 30 nM | 8860 nM
14 | CC1CCCCN1C[C@H](C)Oc1nc(N2CC3CCC(C2)N3)c2cc(Cl)c(-c3ccc(F)c4sc(N)nc34)c(F)c2n1 (stereo partly drawn) [Example E27, 4-(4-(3,8-diazabicyclo[3.2.1]octan-3-yl)-6-chloro-8-fluoro-2-(((2S)-1-(2-methylpiperidin-1-yl)propan-2-yl)oxy)quinazolin-7-yl)-7-fluorobenzo[d]thiazol-2-amine] | 2.9 nM | 57 nM | 518 nM
15 | C[C@@H](CN1CCOCC1)Oc1nc(N2CC3CCC(C2)N3)c2cc(Cl)c(-c3ccc(F)c4sc(N)nc34)c(F)c2n1 [Example E29, 4-(4-(3,8-diazabicyclo[3.2.1]octan-3-yl)-6-chloro-8-fluoro-2-(((S)-1-morpholinopropan-2-yl)oxy)quinazolin-7-yl)-7-fluorobenzo[d]thiazol-2-amine] | 5.9 nM | 453 nM | 903 nM
16 | C[C@@H](CN1CCCCC1)Oc1nc(N2C3CCC2CNC3)c2cc(Cl)c(-c3ccc(F)c4sc(N)nc34)c(F)c2n1 [Example E18, 4-(4-(3,8-diazabicyclo[3.2.1]octan-8-yl)-6-chloro-8-fluoro-2-(((S)-1-(piperidin-1-yl)propan-2-yl)oxy)quinazolin-7-yl)-7-fluorobenzo[d]thiazol-2-amine] | 2.5 nM | 35 nM | 528 nM
17 | C[C@@H](CN1CC(F)C1)Oc1nc(N2CC3CCC(C2)N3)c2cc(Cl)c(-c3ccc(F)c4sc(N)nc34)c(F)c2n1 [Example E31, 4-(4-(3,8-diazabicyclo[3.2.1]octan-3-yl)-6-chloro-8-fluoro-2-(((S)-1-(3-fluoroazetidin-1-yl)propan-2-yl)oxy)quinazolin-7-yl)-7-fluorobenzo[d]thiazol-2-amine] | 11 nM | 1080 nM | 1900 nM
18 | CO[C@@H]1C[C@@H](COc2nc(N3CC4CCC(C3)N4)c3cc(Cl)c(-c4ccc(F)c5sc(N)nc45)c(F)c3n2)N(C)C1 [Example E14, 4-(4-(3,8-diazabicyclo[3.2.1]octan-3-yl)-6-chloro-8-fluoro-2-(((2S,4R)-4-methoxy-1-methylpyrrolidin-2-yl)methoxy)quinazolin-7-yl)-7-fluorobenzo[d]thiazol-2-amine] | 5.3 nM | 68 nM | 1160 nM
